Test results published in patent US8603964B2, “Methods for modulating angiogenesis via dystrophin Dp71” (Institut National de la Sante et de la Recherche Medicale …, priority 2008, dated 2013).

Legend:
[1] = test system: aortic rings explants of wt mice (C57BL/6); test: Mouse aortic ring explant neovessel formation, wild-type mice; assay type: cell-based
From the text: Thoracic aortas were removed from 2 months-old mice (C57BL/6 and Dp71-null mice) killed by CO2 asphyxiation and immediately transferred to a culture dish containing ice-cold endothelial cell basal medium (EGM-2; Cambrex Bioscience). The periaortic fibroadipose tissue was carefully removed with fine microdissecting forceps and scissors, paying special attention not to damage the aortic wall. One millimeters-long aortic rinaortic rings explants gs (15 per aorta from 12 mice) were sectioned and rinsed extensively in eight consecutive washes of EGM-2. The rings were then individually embedded in 48-well plates previously coated with 50 μl synthetic basement membrane (Matrigel; BD Bioscience) per well. After 1 hour, 500 μl EGM-2 was added to each well, and the cultures were incubated at 37° C. for 5 days. The culture medium was change each day. […] For all cell treatment, the final DMSO concentration was adjusted to 0.1%. The aortic rings were photographed on day 4 at ×2 magnification with a macroscope (Leica). The angiogenic response was determined by measuring the area of neovessel formation on computer (ImageJ or Photoshop software).

[2] = test system: aortic rings explants of Dp71-null mice; test: Mouse aortic ring explant neovessel formation, Dp71-null mice; assay type: cell-based; parameters: dose or concentration left out as unconfirmed; details: same treatment with beta-nf, day 4
From the text: The Dp71-null mice strain was obtained by replacing, via homologous recombination, most of the first and unique exon of Dp71 and of a small part of the Dp71 first intron with a sequence encoding a β-gal-neomycine-(beta-gal) resistance chimeric protein (β-geo). This enabled to monitor with great sensitivity the activity of the promoter using X-gal staining (Sarig et al., 1999).
Thoracic aortas were removed from 2 months-old mice (C57BL/6 and Dp71-null mice) killed by CO2 asphyxiation and immediately transferred to a culture dish containing ice-cold endothelial cell basal medium (EGM-2; Cambrex Bioscience). The periaortic fibroadipose tissue was carefully removed with fine microdissecting forceps and scissors, paying special attention not to damage the aortic wall. One millimeters-long aortic rinaortic rings explants gs (15 per aorta from 12 mice) were sectioned and rinsed extensively in eight consecutive washes of EGM-2. The rings were then individually embedded in 48-well plates previously coated with 50 μl synthetic basement membrane (Matrigel; BD Bioscience) per well. After 1 hour, 500 μl EGM-2 was added to each well, and the cultures were incubated at 37° C. for 5 days. The culture medium was change each day. […] The angiogenic response was determined by measuring the area of neovessel formation on computer (ImageJ or Photoshop software).

Dp71 = details: cited from earlier work

O=c1cc(-c2ccccc2)oc2ccc3ccccc3c12 [beta-nf, beta-naphtoflavone]
inhibition of neovessel formation ([1]; explants of wt mice, beta-nf in 0.1% DMSO, area of neovessel formation on day 4, P<0.001): 50% | neoangiogenesis in aortic rings explants (in words) ([1]; wild mice strain expressing Dp71): inhibition of neoangiogenesis | effect on neovessel formation [2]: without effect | Dp71 expression (Dp71): inhibits Dp71 expression
